Patent US20050043551A1, “Method of obtaining 2-(2-nitrovinyl)-furan and the use thereof as a coccidiostatic” (priority 2001, published 2005)
“And” between values parts separate entries of the source, which are not always exact repeats. Equal values may be shown once.

Columns and labels:
[1] = In vitro sister chromatide exchange assay; assay type: cell-based; details: with and without metabolic activation
Experimental: (§1) In vitro mutagenesis studies were carried out using the micronucleus assay with blockade of cytokinesis with and without metabolic activation, as well as the sister chromatide exchange assay with and without metabolic activation. It was are carried out a theoretical study assisted by computer for the prognosis of the mutagenic activity.

[2] = Oral Half Lethal Dose (LD50) in rats; assay type: in vivo; details: several solvents, female and male Sprague Dawley rats
Eimeria tenella = test: Artificial infection of chicks with Eimeria tenella oocysts (Example 2); assay type: in vivo; details: 1x10^5 E. tenella oocysts oral; for Weight gain in % during 9 days: 9 days treatment; for Mortality: deaths/12 birds
Experimental: To carried out the assay of the action of the synthesized product, the 2-(2nitrovynil)-furan, it was first dissolved first in an alcoholic solution at 3% and later in water, using several concentrations (2, 4, 8 μg/ml) of the alcohol-water solution, as is shown Table 2.
One day old, male, free of Coccidia, F1 fatten chicks were used. These birds were maintained in an appropriate condition, free of Coccidia until two weeks of age. For feeding, it was used the same food used to fatten chickens but free of anticoccididals.
5 groups of 12 poultry with similar weight were formed which received an inoculation of 1×10^5 oocysts of Eimeria tenella by oral route, using a esophagic canula. The treatment began when chicks had 15 days of age, 24 hours before receiving the inoculation, during a period of 9 days.
To evaluate the effectiveness of the product the gain of weight (% referred to the initial weight) and the death number approaches were used in each tratment.

[3] = test system: Coccidia (E. perforans, E. magna, E. media, E. exigua); test: Oocyst reduction in feces of treated rabbits in production conditions (Example 5); assay type: in vivo; details: 4 μg/ml in drinking water 5 days, before vs after 7 days
Experimental: The 2-(2-nitrovynil)-furan, in a formulation similar to that described in the example 2, was dissolved in rabbit's drinking water and administered daily at libitum for 5 days at concentration of 4 μg/ml. It were treated 1 246 newborn, young and adult rabbits of the Chinchilla, New White Zelanda and New Red Zelanda species belonging to 3 rabbit companies. The species of Coccidia present were E. perforans 34%, E. magna 32%, E. media 23% and E. exigua 11%. The amount of oocysts per gram of feces before and after 7 days of the treatment was determined to 20% of all treated animals. The difference between the number of oocysts before and after 7 days of treatment expressed as percentage of oocyst reduction, was taken as efficacy criterium.

[4] = test system: intestinal Coccidias (E. perforans, E. magna, E. media, E. exigua); test: Rabbits inoculated with oocysts of intestinal Eimeria (Example 4); assay type: in vivo; details: for Weight gain in % during 7 days: 4 μg/mL in drinking water for 5 days; for Mortality: 4 μg/mL, deaths/3 animals
Experimental: The 2-(2-nitrovynil)-furan, in a formulation similar to that described in the example 2, was dissolved in rabbits' drinking water and administered daily at libitum for 5 days. Two experiments (I, II), each one with 9 rabbits, were carried out. Each experiment had 3 treatments of 3 animals each one. Among treatments an infected no treated group and a group neither infected nor treated were considered.. In the 1st experiment each rabbit received 61×10^3 those of the 2nd experiment 116×10^3 oocysts of intestinal Coccidias. The present species were E. perforans 38%, E. magna 30%, E. media 22% and E. exigua 10%, with a 97.3% of sporulation. The initial and final weight difference and the deaths of animals after 7 days treatment was used as evaluation criteria.

[5] = assay type: cell-based
Experimental: as §1

E. tenella = test: Leghorn egg-laying hens naturally infected with E. tenella (Example 3); assay type: in vivo; details: 4 μg/mL in drinking water twice a day for 5 days, deaths/2000 birds
From the text: The 2-(2-nitrovynil)-furan, in a formulation similar to that described in the example 2, was applied, in the drinking water twice a day (8 am and 12 m) for 5 days, to 2000 Leghorn egg-laying hens of 56-84 days of age, infected naturally with E. tenella. Two houses highly infected by caecal coccidiosis with 2000 birds each were there was an average of 119 deaths per house in 5 days were selected. The diagnoses was made by the presence of bloody diarrheas, the observation of typical lesions in the blind intestine and abundant presence of parasite oocysts in the caecal content. Infected birds in a house was left as nontreated control and another no infected as neither infected nor treated control having the same range of age.
To evaluate the effectiveness of the product the approach described in the example 2 was used, except that as weight control. Except that as weight control 10 birds of each pen were randomly selected and weighed at the beginning and the end of the treatment.

[6] = Oral Half Lethal Dose (LD50) in hens; assay type: in vivo; details: several solvents, mature Leghorn hens
[7] = Experiment I, 61 x 10^3 oocysts
[8] = Experiment II, 116 x 10^3 oocysts

O=[N+]([O-])C=Cc1ccco1 [2-(2-nitrovynil)-furan]
Mutagenic activity, sister chromatide exchange assay [1]: did not shown mutagenic activity | Half Lethal Dose (LD50) [2]: 171.91 mg/kg of body mass | Weight gain in % during 9 days (Eimeria tenella; dose 2 μg/mL): 78.79% | Mortality (Eimeria tenella; dose 2 μg/mL): 1/12 | Mortality (Eimeria tenella; dose 4 μg/mL): no deaths and 0/12 | Weight gain in % during 9 days (Eimeria tenella; dose 8 μg/mL): 63.95% | Mortality (Eimeria tenella; dose 8 μg/mL): 0/12 | Reduction in % (oocysts per gram of feces) ([3]; Company 1, rabbits): 90% | Reduction in % (oocysts per gram of feces) ([3]; Company 2, rabbits): 99% | Reduction in % (oocysts per gram of feces) ([3]; Company 3, rabbits): 90% | Weight gain in % during 7 days [4, 7]: 4% | Mortality [4, 7]: no mortality and 0/3 | Weight gain in % during 7 days [4, 8]: 3% | Mortality [4, 8]: no deaths and 0/3 | Mutagenic activity, micronucleus assay [5]: did not shown mutagenic activity | Mortality in 5 days (E. tenella): remarkable decrease of mortality and 15/2000 | Half Lethal Dose (LD50) [6]: 1.02 g/kg of body mass
